The text below walks through data of patent US20230285372A1, “Pharmaceutical use of (E)-3-arylheterocyclylprop-2-enoic acid derivatives” (MEDCURIUS INC., priority 2020, published 2023).

For test [1], the system named is HT-22 cells. As to the kind of experiment: Protective effect on HT-22 cell damage caused by L-glutamate monosodium salt. It is filed as cell-based, mouse. The note with it: 15 mM L-glutamate. The protocol: (§1) Well-proliferated HT-22 cells, derived from mouse hippocampal neuronal cells in logarithmic growth phase, were selected, and they were counted after being subjected to trypsin digestion and dispersion. The cell density was adjusted with DMEM/F12 medium (containing 10% FBS and 1% double antibody). The cells were then inoculated in a 96-well plate at a density of 2,000 cells per well, and cultured in a cell incubator at 37° C. in atmosphere containing 5% CO2 for 24 hours. For the control group and the L-glutamate monosodium salt group (model group), serum-free DMEM/F12 medium was added, and the other wells were added with tested compounds of different concentrations; except that the serum-free DMEM/F12 medium was added to the control group. L-glutamate monosodium salt solution at the final concentration of 15 mM was added to the remaining wells. After 24 hours, the cell viability was detected with a luminescent cell viability assay kit.
as §1, with “group,” for “group.”
as §1, with “2.000” for “2,000”, “group,” for “group.”

Test [2] deals with NQO-1. The experiment in a line: NQO-1 expression in HT-22 cytoplasm, Western Blot. The class given is cell-based, mouse. The note with it: HT-22 cells, 1.25 μM and 0.625 μM, 24 hours, vs control group. The source says:
(§2) As a transcription factor, Nrf2 needs to enter the nucleus and combine with ARE sequence to play a role in transcriptional activation. Therefore, Nrf2 protein level in the nucleus is an important prerequisite for the activation of Nrf2 signaling pathway. NQO-1 and HO-1 are target genes regulated by Nrf2, and the increase of their protein levels is an important sign of activation of the Nrf2 signaling pathway.
(§3) HT-22 cells in logarithmic growth phase were selected, the culture medium was discarded, the cells were digested with 0.25% Trypsin containing EDTA, and cell suspension was made. Cell density was adjusted to 50000/ml with DMEM/F12 medium (containing 10% FBS and 1% double antibody) and it was inoculated to 6-well plate, with 2000 μL/well, the number of cells per well was 100, 000, and the cells were cultured in a cell incubator at 37° C. in an atmosphere containing 5% CO2 for 24 hours. Then, the medium of each well was replaced with new 1980 μL DMEM/F12 medium. […] After 24 hours, the cells were collected, nuclear protein and cytoplasmic protein were extracted, and the level of Nrf2 in the nucleus and the expression of NQO-1 and HO-1 in cytoplasm were detected by Western Blot.
On the technique in general: In western blotting, separated proteins are transferred to a membrane and probed.

For test [3], the system named is HO-1. The experiment in a line: HO-1 expression in HT-22 cytoplasm, Western Blot. The class given is cell-based, mouse. The note with it: HT-22 cells, 1.25 μM and 0.625 μM, 24 hours, vs control group.
Text: as §2, §3

In test [4] the test system is Nrf2. As to the kind of experiment: Nrf2 protein level in the nucleus of HT-22 cells, Western Blot. The note with it: 1.25 μM and 0.625 μM, 24 hours, vs control group. It is filed as cell-based, mouse.
Text: as §2, §3

The test system of test [5] is SH-SY5Y cells. The experiment in a line: Protective effect on SH-SY5Y cell damage caused by oxygen-glucose deprivation/reperfusion. It is filed as cell-based. The note with it: OGD 4 hours then 24 hours, CCK-8, model 56.83. As for the experimental part:
SH-SY5Y cells in logarithmic growth phase were selected, the culture medium was discarded, the cells were digested with 0.25% Trypsin containing EDTA, and cell suspension was made. Cell density was adjusted to 30,000/ml with DMEM/F12 medium (containing 10% FBS and 1% double antibody) and it was inoculated to 96-well plate, 100 μL/well, the number of cells per well was 3,000, and the cells were cultured in a cell incubator at 37° C. in an atmosphere containing 5% CO2 for 24 hours. After 24 hours, the cells were washed twice with the Earle's solution. For the control group, 100 μL oxygenated Earle's solution was added in each well, and for the remaining groups, 100 μL oxygen-free Earle's solution after nitrogen bubbling was added, and the oxygen content in an anoxic chamber was kept below 0.5%, and models were made in the cell incubator for 4 hours. […] After 24 hours, CCK-8 cell viability test kit was used to detect the cell viability.

For test [6], the system named is MPTP-induced Parkinson's disease mouse. The experiment in a line: Pole-climbing test, MPTP-induced Parkinson's disease mouse. The class given is in vivo. The note with it: L-DOPA 10 mg/kg qd intragastric, 40 days; vs model group, p<0.0001. As for the experimental part:
(§4) Male C57 mouse were screened for their motor function by a mouse rod-rotating test, and unqualified ones were excluded from the test. […] MPTP was injected subcutaneously every 4 days in the model group and the drug administration group with a dosage of 25 mg/kg for 40 consecutive days. Each group of I-5 was administered once a day at 8:00 am and 8:00 pm (by intragastric administration), twice in total. […] The intragastric volume was 0.1 ml/10 g body weight, and the behavior test was started 40 days later. […] The storage time of the prepared liquid medicine was not more than 24 hours.
A climbing pole in the pole-climbing test was a rough wooden pole with a diameter of 2 cm and a length of 50 cm. The bottom of the wooden pole was located in the mouse home cage and was vertically oriented. When the mouse was placed on top of the wooden pole, it would naturally descend to the bottom of the wooden pole and reach the base of the pole. […] The mouse should have a pre-acclimation period of 2 days prior to the test, training five times a day. To the test day, the time required for the […] to reach the bottom (incubation period) was taken as an evaluation index to observe the effect of the tested compound on the motion ability of the mouse.

In test [7] the test system is α-synuclein protein. The experiment in a line: α-synuclein protein level in midbrain, Western blot, MPTP mouse. It is filed as in vivo. The note with it: L-DOPA 10 mg/kg; p>0.05. From the text: (§5) The core pathological change of Parkinson's disease is the loss of dopaminergic neurons. Tyrosine hydroxylase (TH), the rate-limiting enzyme in dopamine synthesis, is the landmark protein of the dopaminergic neurons. Therefore, the decrease in its level indicates the loss of the dopaminergic neurons. A key protein for the occurrence and development of Parkinson's disease is α-synuclein protein, and the abnormal modification (hyperphosphorylation) of this protein can inhibit microtubule polymerization, enhance oxidative stress, and thus accelerate the death of the dopaminergic neurons.
Male C57 mouse were screened for their motor function by a mouse rod-rotating test, and unqualified ones were excluded from the test. […] MPTP was injected subcutaneously every 4 days in the model group and the drug administration group with a dosage of 25 mg/kg for 40 consecutive days. Each group of I-5 was administered once a day at 8:00 am and 8:00 pm (by intragastric administration), twice in total. […]
Tissues from all the animals were collected on the second day after the end of the behavioral experiment. […] The level of tyrosine hydroxylase (TH), a marker protein of dopaminergic neurons, was detected by immumohistochemistry, and α-synuclein protein level and phosphorylation level of the protein were detected by Western blot.

The test system of test [8] is MPTP-induced Parkinson's disease mouse. As to the kind of experiment: Rotarod test, MPTP-induced Parkinson's disease mouse. The note with it: L-DOPA 10 mg/kg qd; vs model group, p<0.0001. The class given is in vivo. As for the experimental part: as §4
On the first day, the mouse acclimated to a rotating speed of 5 rpm for two times, each time for 5 minutes. On the second day, the rotarod turned at a speed of 10 rpm, the mouse acclimated to the speed for two times, each time for 5 minutes. On the third day, the rotarod turned at a speed of 15 rpm, the mouse acclimated to the speed for two times, each time for 3 minutes. On the fourth day, a behavioral test was started. The rotarod turned at a speed of 15 rpm for a period of 3 minutes. The time mouse spent on the rotarod (fall latency) was taken as an index for evaluation of their motor coordination. The test was repeated three times for each animal, with an interval of 30 minutes to eliminate the interference of exercise fatigue on the motion ability of animals.
(The rotarod test checks motor coordination on a turning rod.)

In test [9] the test system is p-synuclein. As to the kind of experiment: Phosphorylated α-synuclein (p-synuclein) level in midbrain, Western blot, MPTP mouse. The class given is in vivo. The note with it: L-DOPA 10 mg/kg; p>0.05.
Text: as §5, §4
Tissues from all the animals were collected on the second day after the end of the behavioral experiment. Hearts from six animals in each group were perfused and fixed with paraformaldehyde for pathological analysis of paraffin sections. Brain tissue of the remaining animals was separated on ice, and brain areas (midbrain) related to Parkinson's disease were collected. After being frozen with liquid nitrogen, they were stored in a refrigerator at −80° C. for protein analysis. The level of tyrosine hydroxylase (TH), a marker protein of dopaminergic neurons, was detected by immumohistochemistry, and α-synuclein protein level and phosphorylation level of the protein were detected by Western blot.

SMILES strings stand for the structures. Where a name gives a salt, the structure may show the parent alone. Read-outs that look alike come from different tables or passages of the source.

In the case of `Cc1csc(/C=C/C#N)n1` [Compound I-30], in [1] (HT22 cells, comparison with positive control drug DMF), the “protection of HT22 cells against L-glutamate monosodium salt damage, in words” value is on record as “perform better than the positive control drug DMF”.
Regarding `COC(=O)/C=C/C(=O)OC` [DMF, dimethyl fumarate, reference compound], the “protein level of NQO-1” value in test [2] is recorded as “no statistical difference”. For the same compound, the “protein level of HO-1” value in [3] was “no statistical difference”. Further, the viability at 0.078 µM was determined as 37.6% in test [1] (Mus musculus, HT-22, 24 h, Table 1, Conc 0.078 μm, 24 hours, L-Glu alone 27.73 (I-5 32.92), read-out: cell viability) and 34.3% in test [1] (Mus musculus, HT-22, 24 h, Table 2, Conc 0.078 μM, 24 hours, L-Glu alone 27.83, read-out: Visibility %). Also, the viability at 0.156 µM in test [1] (Mus musculus, HT-22, 24 h, Table 1, Conc 0.156 μm, 24 hours, L-Glu alone 27.73 (I-5 32.92), read-out: cell viability) was 47.5%; in [1] (Mus musculus, HT-22, 24 h, Table 2, Conc 0.156 μM, 24 hours, L-Glu alone 27.83, read-out: Visibility %), 34.9%. In [1] (Mus musculus, HT-22, 24 h, Table 1, Conc 0.313 μm, 24 hours, L-Glu alone 27.73 (I-5 32.92), read-out: cell viability), the viability at 0.313 µM was 52.8%. The viability at 0.625 µM in test [1] (Mus musculus, HT-22, 24 h, Table 1, Conc 0.625 μm, 24 hours, L-Glu alone 27.73 (I-5 32.92), read-out: cell viability) was found to be 60%. Moreover, the viability at 1.25 µM in test [1] (Mus musculus, HT-22, 24 h, Table 1, Conc 1.25 μm, 24 hours, L-Glu alone 27.73 (I-5 32.92), read-out: cell viability) is 53.3%. For the same compound, in test [1] (Mus musculus, HT-22, 24 h, Table 1, Conc 2.5 μm, 24 hours, L-Glu alone 27.73 (I-5 32.92), read-out: cell viability), the viability at 2.5 µM amounted to 63.6%. The viability at 10 µM in test [1] (Mus musculus, HT-22, 24 h, Table 1, Conc 10 μm, 24 hours, L-Glu alone 27.73 (I-5 32.92), read-out: cell viability) was 70.2%. For the same compound, the “protein level of Nrf2 in the nucleus” value in test [4] is recorded as “no statistical difference”.
`CC1=NN(c2ccccc2)C(=O)C1` [Edaravone, reference compound]: the Visibility % in test [5] (Conc 0.078 μM) was found to be 59.41%; in test [5] (Conc 0.156 μM), 62.42%; in test [5] (Conc 10 μM) it was 67.39%.
For the compound `N#C/C=C/c1ccccn1` [I-5 HCl], the Visibility % in [5] (Conc 0.078 μM) was determined as 67.72%; in test [5] (Conc 0.156 μM), 67.82%; in [5] (Conc 0.313 μM) it was 69.35%; in test [5] (Conc 0.625 μM), 74.72%.
Consider `N[C@@H](Cc1ccc(O)c(O)c1)C(=O)O` [L-DOPA, levodopa, reference compound], for which the “latency of mouse reaching the base of the pole” value in [6] was “significantly shorten the latency”. Besides, the “α-synuclein protein level in the midbrain” value in test [7] was “no significant effect”. In test [8], the “fall latency in the Rotarod test” value is given as “significantly prolonged”. Also, the “p-synuclein protein level in the midbrain” value in [9] is recorded as “no significant effect”.
